# Patent US9504729B2, “Antiangiogenic small molecules and methods of use” (The United States of America, as represented by the …, priority 2009, dated 2016)
# Tested on: angiogenesis genes in dermal microvascular endothelial cells
# Experiment: Real time RT-PCR of angiogenesis gene expression during endothelial tube formation
# Type: cell-based
# Conditions: 1 μM SM, 24 hours
compound,measurement,setting,value
COc1cc2cc(c1Cl)N(C)C(=O)CC(OC(=O)C(C)C)C1(C)OC1C(C)C1CC(O)(NC(=O)O1)C(OC)/C=C/C=C(\C)C2 (centres unmarked) [compound 292222],Log2 fold-change of gene expression: 1839,,−0.1
same,Log2 fold-change of gene expression: 4247,,0.5
same,Log2 fold-change of gene expression: 5569,,1.5
same,Log2 fold-change of gene expression: 8131,,0.1
same,Log2 fold-change of gene expression: 9569,,0.2
same,Log2 fold-change of gene expression: 10988,,1.0
same,Log2 fold-change of gene expression: 23001,,−0.8
same,Log2 fold-change of gene expression: 55332,,2.4
same,Log2 fold-change of gene expression: 57722,,0.0
same,Log2 fold-change of gene expression: 58488,,1.0
same,Log2 fold-change of gene expression: 90780,,0.1
same,Log2 fold-change of gene expression: 134265,,−1.3
same,Log2 fold-change of gene expression: AKT1,,0.7
same,Log2 fold-change of gene expression: ANGPT1,,0.9
same,Log2 fold-change of gene expression: ANGPT2,,−1.3
same,Log2 fold-change of gene expression: ANGPTL3,,0.6
same,Log2 fold-change of gene expression: ANGPTL4,,1.3
same,Log2 fold-change of gene expression: ANPEP,,−0.6
same,Log2 fold-change of gene expression: ANTXR1,,−0.2
same,Log2 fold-change of gene expression: APOE,,−2.2
same,Log2 fold-change of gene expression: ARHGEF1,,−0.9
same,Log2 fold-change of gene expression: Acvrl1,,0.0
same,Log2 fold-change of gene expression: Adcy4,,−0.4
same,Log2 fold-change of gene expression: BAL1,,0.2
same,Log2 fold-change of gene expression: BMP1,,0.4
same,Log2 fold-change of gene expression: C1orf54,,−0.1
same,Log2 fold-change of gene expression: CALD1,,0.6
same,Log2 fold-change of gene expression: CCL2,,0.9
same,Log2 fold-change of gene expression: CCL11,,0.2
same,Log2 fold-change of gene expression: CD248,,1.3
same,Log2 fold-change of gene expression: CDH5,,−0.1
same,Log2 fold-change of gene expression: CENTD3,,−0.5
same,Log2 fold-change of gene expression: CLIC1,,6.6
same,Log2 fold-change of gene expression: COL4A3,,2.0
same,Log2 fold-change of gene expression: COL18A1,,1.2
same,Log2 fold-change of gene expression: COMT,,−0.2
same,Log2 fold-change of gene expression: CST4,,0.8
same,Log2 fold-change of gene expression: CTTNBP2NL,,0.2
same,Log2 fold-change of gene expression: CXCL3,,5.0
same,Log2 fold-change of gene expression: CXCL5,,3.4
same,Log2 fold-change of gene expression: CXCL6,,0.4
same,Log2 fold-change of gene expression: CXCL9,,0.4
same,Log2 fold-change of gene expression: CXCL10,,0.8
same,Log2 fold-change of gene expression: Calcr1,,−1.1
same,Log2 fold-change of gene expression: Caskin2,,−6.7
same,Log2 fold-change of gene expression: Ccbp2,,0.4
same,Log2 fold-change of gene expression: Cldn5,,−0.1
same,Log2 fold-change of gene expression: DGKG,,2.9
same,Log2 fold-change of gene expression: DKK3,,−1.1
same,Log2 fold-change of gene expression: DLL4,,−2.2
same,Log2 fold-change of gene expression: DUT,,−0.4
same,Log2 fold-change of gene expression: EFNA1,,0.9
same,Log2 fold-change of gene expression: EFNA3,,0.1
same,Log2 fold-change of gene expression: EFNB2,,−2.2
same,Log2 fold-change of gene expression: EGF,,2.8
same,Log2 fold-change of gene expression: ENG,,−0.9
same,Log2 fold-change of gene expression: EPHB4,,−0.5
same,Log2 fold-change of gene expression: EREG,,5.0
same,Log2 fold-change of gene expression: ESAM1,,−1.1
same,Log2 fold-change of gene expression: EXTL3,,0.8
same,Log2 fold-change of gene expression: Egf17,,−1.2
same,Log2 fold-change of gene expression: Ehd4,,−1.4
same,Log2 fold-change of gene expression: Entpd1,,−5.5
same,Log2 fold-change of gene expression: Epas1,,−1.7
same,Log2 fold-change of gene expression: EphB1,,0.9
same,Log2 fold-change of gene expression: Erg,,3.7
same,Log2 fold-change of gene expression: FGF1,,−1.4
same,Log2 fold-change of gene expression: FGF2,,−0.6
same,Log2 fold-change of gene expression: FGFR3,,0.8
same,Log2 fold-change of gene expression: FIGF,,0.1
same,Log2 fold-change of gene expression: FLT1,,−0.2
same,Log2 fold-change of gene expression: Fgd5,,−0.8
same,Log2 fold-change of gene expression: GPCR124,,−1.9
same,Log2 fold-change of gene expression: GRRP1,,0.1
same,Log2 fold-change of gene expression: Grp116,,−4.4
same,Log2 fold-change of gene expression: HAND2,,1.0
same,Log2 fold-change of gene expression: HGF,,1.3
same,Log2 fold-change of gene expression: HIF1A,,−0.7
same,Log2 fold-change of gene expression: HPSE,,1.6
same,Log2 fold-change of gene expression: Hspa12b,,−2.2
same,Log2 fold-change of gene expression: ID1,,0.0
same,Log2 fold-change of gene expression: ID3,,−0.2
same,Log2 fold-change of gene expression: IFNA1,,0.8
same,Log2 fold-change of gene expression: IFNB1,,1.1
same,Log2 fold-change of gene expression: IFNG,,3.1
same,Log2 fold-change of gene expression: IGF1,,6.0
same,Log2 fold-change of gene expression: IL1B,,4.3
same,Log2 fold-change of gene expression: IL6,,3.0
same,Log2 fold-change of gene expression: IL8,,13.9
same,Log2 fold-change of gene expression: ITGAV,,1.2
same,Log2 fold-change of gene expression: ITGB3,,2.5
same,Log2 fold-change of gene expression: Icam1,,0.5
same,Log2 fold-change of gene expression: Icam2,,0.1
same,Log2 fold-change of gene expression: JAG1,,1.6
same,Log2 fold-change of gene expression: KDR,,−1.2
same,Log2 fold-change of gene expression: Kifc1,,0.5
same,Log2 fold-change of gene expression: LAMAS5,,−0.4
same,Log2 fold-change of gene expression: LECT1,,1.4
same,Log2 fold-change of gene expression: LEP,,−0.6
same,Log2 fold-change of gene expression: Lasts2,,0.1
same,Log2 fold-change of gene expression: Lrrk1,,−0.1
same,Log2 fold-change of gene expression: MDK,,0.8
same,Log2 fold-change of gene expression: MMP2,,2.8
same,Log2 fold-change of gene expression: MMP9,,3.3
same,Log2 fold-change of gene expression: MMP11,,0.1
same,Log2 fold-change of gene expression: MRC2,,0.6
same,Log2 fold-change of gene expression: Mmm2,,−1.0
same,Log2 fold-change of gene expression: Myo1b,,−1.5
same,Log2 fold-change of gene expression: NID1,,−2.5
same,Log2 fold-change of gene expression: NM023516,,0.4
same,Log2 fold-change of gene expression: NRP1,,0.8
same,Log2 fold-change of gene expression: NRP2,,1.0
same,Log2 fold-change of gene expression: Notch4,,−0.4
same,Log2 fold-change of gene expression: Npr3,,0.9
same,Log2 fold-change of gene expression: PALD,,1.8
same,Log2 fold-change of gene expression: PDCD2,,0.2
same,Log2 fold-change of gene expression: PDGFA,,1.6
same,Log2 fold-change of gene expression: PECAM1,,−0.7
same,Log2 fold-change of gene expression: PGF,,0.6
same,Log2 fold-change of gene expression: PLAU,,2.7
same,Log2 fold-change of gene expression: PLG,,−0.7
same,Log2 fold-change of gene expression: PNMT,,0.1
same,Log2 fold-change of gene expression: PROK2,,1.9
same,Log2 fold-change of gene expression: PTGS1,,2.0
same,Log2 fold-change of gene expression: PTPRCAP,,0.1
same,Log2 fold-change of gene expression: Pltp,,0.4
same,Log2 fold-change of gene expression: Ptprb,,0.3
same,Log2 fold-change of gene expression: Ptprm,,−0.1
same,Log2 fold-change of gene expression: RAMP2,,−0.6
same,Log2 fold-change of gene expression: RASD2,,0.3
same,Log2 fold-change of gene expression: Rasip1,,−0.3
same,Log2 fold-change of gene expression: S1PR1,,−0.3
same,Log2 fold-change of gene expression: SERPINF1,,2.3
same,Log2 fold-change of gene expression: SPHK1,,2.0
same,Log2 fold-change of gene expression: STAB1,,0.2
same,Log2 fold-change of gene expression: Sdc4,,0.7
same,Log2 fold-change of gene expression: Sdpr,,−4.9
same,Log2 fold-change of gene expression: Slc43a3,,1.0
same,Log2 fold-change of gene expression: Slco2a1,,−5.3
same,Log2 fold-change of gene expression: TEK,,2.0
same,Log2 fold-change of gene expression: TGFA,,−3.4
same,Log2 fold-change of gene expression: TGFB1,,1.1
same,Log2 fold-change of gene expression: TGFB2,,1.9
same,Log2 fold-change of gene expression: TGFBR1,,1.8
same,Log2 fold-change of gene expression: THBS1,,1.1
same,Log2 fold-change of gene expression: THBS2,,1.9
same,Log2 fold-change of gene expression: THY1,,−8.0
same,Log2 fold-change of gene expression: TIMP1,,1.6
same,Log2 fold-change of gene expression: TIMP2,,1.1
same,Log2 fold-change of gene expression: TIMP3,,−0.4
same,Log2 fold-change of gene expression: TNF,,1.0
same,Log2 fold-change of gene expression: TNS1,,−0.3
same,Log2 fold-change of gene expression: TNS3,,0.5
same,Log2 fold-change of gene expression: TRA2B,,−0.6
same,Log2 fold-change of gene expression: TYMP,,−0.1
same,Log2 fold-change of gene expression: VEGFA,,3.2
same,Log2 fold-change of gene expression: VEGFC,,2.7
same,Log2 fold-change of gene expression: VGLL4,,−0.8
same,Log2 fold-change of gene expression: Vwf,,−3.3
same,Log2 fold-change of gene expression: copa,,0.2
same,Log2 fold-change of gene expression: itbp4,,0.1
same,Log2 fold-change of gene expression: ralb,,−0.4
same,Log2 fold-change of gene expression: stard9,,0.8
same,Log2 fold-change of gene expression: B2M,1st listing (r49),−0.4
same,Log2 fold-change of gene expression: HPRT1,1st listing (r50),0.3
same,Log2 fold-change of gene expression: RPL13A,1st listing (r51),0.7
same,Log2 fold-change of gene expression: GADPH,1st listing (r52),−0.1
same,Log2 fold-change of gene expression: ACTB,1st listing (r53),−0.8
same,Log2 fold-change of gene expression: PLXDC1,1st listing (r74),−0.1
same,Log2 fold-change of gene expression: TNFAIP2,1st listing (r91),0.6
same,Log2 fold-change of gene expression: Robo4,1st listing (r95),1.1
same,Log2 fold-change of gene expression: 151516,1st listing (r134),0.7
same,Log2 fold-change of gene expression: TNFAIP2,2nd listing (r92),0.2
same,Log2 fold-change of gene expression: B2M,2nd listing (r97),1.3
same,Log2 fold-change of gene expression: HPRT1,2nd listing (r98),1.4
same,Log2 fold-change of gene expression: RPL13A,2nd listing (r99),1.7
same,Log2 fold-change of gene expression: GADPH,2nd listing (r100),1.4
same,Log2 fold-change of gene expression: ACTB,2nd listing (r101),−6.3
same,Log2 fold-change of gene expression: PLXDC1,2nd listing (r104),0.3
same,Log2 fold-change of gene expression: 151516,2nd listing (r139),0.7
same,Log2 fold-change of gene expression: Robo4,2nd listing (r188),0.0
same,Log2 fold-change of gene expression: B2M,3rd listing (r145),0.0
same,Log2 fold-change of gene expression: HPRT1,3rd listing (r146),0.2
same,Log2 fold-change of gene expression: RPL13A,3rd listing (r147),0.3
same,Log2 fold-change of gene expression: GADPH,3rd listing (r148),−0.1
same,Log2 fold-change of gene expression: ACTB,3rd listing (r149),−0.9
same,Log2 fold-change of gene expression: B2M,4th listing (r193),0.6
same,Log2 fold-change of gene expression: HPRT1,4th listing (r194),0.4
same,Log2 fold-change of gene expression: RPL13A,4th listing (r195),1.2
same,Log2 fold-change of gene expression: GADPH,4th listing (r196),−0.2
same,Log2 fold-change of gene expression: ACTB,4th listing (r197),−0.6
